According to PubChem BioAssay AID2060601 (Molecular Pharmacology Branch, DTP, NCI, 2025):

Test system: 874868-142-R-J2-PDC complex spheroids, growth % test/control
Assay: Anticancer human tumor 874868-142-R-J2-PDC patient-derived head and neck squamous carcinoma cell line growth inhibition [CLK]
Settings: for IC50: curve of first compound; for viability, T/C: stronger effect = lower value
Procedure, shortened: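 Multi-cell-type spheroids combined patient-derived tumor cells with HUVEC endothelial cells and human mesenchymal stem cells. Paired agents were dosed in half-log steps down from about clinical Cmax, or from 10 microM where Cmax was unknown.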

[1] = second compound 0.0316 µM, first compound 0.0316 µM
[2] = second compound 0.0316 µM, first compound 0.1 µM
[3] = second compound 0.0316 µM, first compound 0.316 µM
[4] = second compound 0.0316 µM, first compound 1 µM
[5] = second compound 0.1 µM, first compound 0.0316 µM
[6] = second compound 0.1 µM, first compound 0.1 µM
[7] = second compound 0.1 µM, first compound 0.316 µM
[8] = second compound 0.1 µM, first compound 1 µM
[9] = second compound 0.316 µM, first compound 0.0316 µM
[10] = second compound 0.316 µM, first compound 0.1 µM
[11] = second compound 0.316 µM, first compound 0.316 µM
[12] = second compound 0.316 µM, first compound 1 µM
[13] = second compound 1 µM, first compound 0.0316 µM
[14] = second compound 1 µM, first compound 0.1 µM
[15] = second compound 1 µM, first compound 0.316 µM
[16] = second compound 1 µM, first compound 1 µM
[17] = second compound 3.16 µM, first compound 0.0316 µM
[18] = second compound 3.16 µM, first compound 0.1 µM
[19] = second compound 3.16 µM, first compound 0.316 µM
[20] = second compound 3.16 µM, first compound 1 µM
[21] = second compound 10 µM, first compound 0.0316 µM
[22] = second compound 10 µM, first compound 0.1 µM
[23] = second compound 10 µM, first compound 0.316 µM
[24] = second compound 10 µM, first compound 1 µM
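Note: spheroids exposed to the compounds for 7 days.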
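Throughout, for viability, T/C: 100% = DMSO vehicle control viability.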

CCCS(=O)(=O)Nc1ccc(F)c(C(=O)c2c[nH]c3ncc(-c4ccc(Cl)cc4)cc23)c1F + CN1CCN(c2cc(C(=O)Nc3cc4cc(-c5cnn(C)c5)ccc4cn3)ccn2)CC1
IC50 (second compound 0.0316 µM): > 10000 nM
IC50 (second compound 0.1 µM): > 10000 nM
IC50 (second compound 0.316 µM): < 31.6 nM
IC50 (second compound 1 µM): < 31.6 nM
IC50 (second compound 3.16 µM): < 31.6 nM
IC50 (second compound 10 µM): < 31.6 nM
viability, T/C [1]: 99.5%
viability, T/C [2]: 95.3%
viability, T/C [3]: 97.4%
viability, T/C [4]: 120%
viability, T/C (second compound 0.0316 µM, first compound 3.16 µM): 104%
viability, T/C (second compound 0.0316 µM, first compound 10 µM): 88.4%
viability, T/C [5]: 71.4%
viability, T/C [6]: 82.1%
viability, T/C [7]: 101%
viability, T/C [8]: 103%
viability, T/C (second compound 0.1 µM, first compound 3.16 µM): 99.2%
viability, T/C (second compound 0.1 µM, first compound 10 µM): 67.2%
viability, T/C [9]: 21.1%
viability, T/C [10]: 18.1%
viability, T/C [11]: 16%
viability, T/C [12]: 14.8%
viability, T/C (second compound 0.316 µM, first compound 3.16 µM): 20.2%
viability, T/C (second compound 0.316 µM, first compound 10 µM): 17.8%
viability, T/C [13]: 0.34%
viability, T/C [14]: 0.78%
viability, T/C [15]: 0.38%
viability, T/C [16]: 0.32%
viability, T/C (second compound 1 µM, first compound 3.16 µM): 0.26%
viability, T/C (second compound 1 µM, first compound 10 µM): 3.04%
viability, T/C [17]: 0.22%
viability, T/C [18]: 3.25%
viability, T/C [19]: 0.32%
viability, T/C [20]: 0.24%
viability, T/C (second compound 3.16 µM, first compound 3.16 µM): 0.3%
viability, T/C (second compound 3.16 µM, first compound 10 µM): 2.5%
viability, T/C [21]: 0.34%
viability, T/C [22]: 0.84%
viability, T/C [23]: 0.18%
viability, T/C [24]: 0.18%
viability, T/C (second compound 10 µM, first compound 3.16 µM): 0.19%
viability, T/C (second compound 10 µM, first compound 10 µM): 2%

CCc1c2c(nc3ccc(O)cc13)-c1cc3c(c(=O)n1C2)COC(=O)[C@]3(O)CC + CNC(=O)c1ccc(Nc2nc(OC3CCCC3)c3c(-c4ccc5nc(C)oc5c4)c[nH]c3n2)c(OC)c1
IC50 (second compound 0.0316 µM): 11.8 nM
IC50 (second compound 0.1 µM): 3.98 nM
IC50 (second compound 0.316 µM): < 3.16 nM
IC50 (second compound 1 µM): < 3.16 nM
IC50 (second compound 3.16 µM): < 3.16 nM
IC50 (second compound 10 µM): < 3.16 nM
viability, T/C (second compound 0.0316 µM, first compound 0.00316 µM): 63.6%
viability, T/C (second compound 0.0316 µM, first compound 0.01 µM): 44%
viability, T/C [1]: 47.1%
viability, T/C [2]: 28%
viability, T/C [3]: 11.6%
viability, T/C [4]: 2.44%
viability, T/C (second compound 0.1 µM, first compound 0.00316 µM): 50.4%
viability, T/C (second compound 0.1 µM, first compound 0.01 µM): 47.8%
viability, T/C [5]: 35.7%
viability, T/C [6]: 28.2%
viability, T/C [7]: 16.6%
viability, T/C [8]: 2.97%
viability, T/C (second compound 0.316 µM, first compound 0.00316 µM): 42.9%
viability, T/C (second compound 0.316 µM, first compound 0.01 µM): 37.9%
viability, T/C [9]: 34.4%
viability, T/C [10]: 19.6%
viability, T/C [11]: 11.3%
viability, T/C [12]: 4.87%
viability, T/C (second compound 1 µM, first compound 0.00316 µM): 31%
viability, T/C (second compound 1 µM, first compound 0.01 µM): 26.8%
viability, T/C [13]: 15.1%
viability, T/C [14]: 11.6%
viability, T/C [15]: 7.96%
viability, T/C [16]: 1.98%
viability, T/C (second compound 3.16 µM, first compound 0.00316 µM): 24.7%
viability, T/C (second compound 3.16 µM, first compound 0.01 µM): 20.7%
viability, T/C [17]: 15.3%
viability, T/C [18]: 12.4%
viability, T/C [19]: 12.8%
viability, T/C [20]: 4.03%
viability, T/C (second compound 10 µM, first compound 0.00316 µM): 28.8%
viability, T/C (second compound 10 µM, first compound 0.01 µM): 21.6%
viability, T/C [21]: 14%
viability, T/C [22]: 11.2%
viability, T/C [23]: 9.57%
viability, T/C [24]: 9.34%
